Patent US20170158735A1, “METHOD FOR PRODUCING A RECOMBINANT PEPTIDE AND RESULTANT PEPTIDE” ("IVIX" Ltd., priority 2012, published 2017)
Ends that are not written are not given here.

Test system: sexual behavior of female rats
Assay: Lordosis test: sexual behavior of ovariectomized hormonally stimulated female rats with a sexually active male
Type: in vivo, rat
Conditions: for Percentage of lordoses / Number of acts of proceptive behavior: ovariectomized hormonally stimulated female rats, progesterone 0.5 mg/rat, test product 100 μg/rat; for Percentage of lordoses: negative control 0.73 ± 0.12; for Number of acts of proceptive behavior: negative control 14 ± 4; for Effect on sexual motivation / reproductive- and sexual-function stimulating activity (in words): lordosis model, female rats, 100 μg/rat
Procedure: Sexual behavior was recorded in ovariectomized hormonally stimulated females in direct contact with the sexually active male, or when such a contact was impossible. […]
Sexual behavior was recorded in ovariectomized hormonally stimulated females in direct contact with the sexually active male, or when such a contact was impossible.

For Thr-Lys-Pro (TKP), the Percentage of lordoses (Table 4 / Example 8) was 0.97±0.12, the “Number of acts of proceptive behavior” value (Table 4 / Example 8) was 29±6 acts and the Percentage of lordoses (Table 5 / Example 9) was 0.96 ± 0.12. The “Effect on sexual motivation / reproductive- and sexual-function stimulating activity (in words)” value was “intensification of sexual motivation”.

In the case of Thr-Lys-Pro-Phe (TKPF), the “Effect on sexual motivation / reproductive- and sexual-function stimulating activity (in words)” value is reported as “lack of sexual motivation effect”.

Thr-Lys-Pro-Arg-Pro (TKPRP) was tested, and the Percentage of lordoses (Table 5 / Example 9) was 0.99 ± 0.09 and the “Effect on sexual motivation / reproductive- and sexual-function stimulating activity (in words)” value was “intensification of sexual motivation”.

Pro-Gly-Pro (PGP) was tested, and the Percentage of lordoses (Table 4 / Example 8) was 0.74 ± 0.09 and the “Number of acts of proceptive behavior” value (Table 4 / Example 8) was 13 ± 5 acts.

With Thr-Lys-Pro-Arg (TKPR) the “Effect on sexual motivation / reproductive- and sexual-function stimulating activity (in words)” value was “lack of sexual motivation effect”.

In the case of Arg-Pro-Gly-Pro (RPGP), the Percentage of lordoses (Table 4 / Example 8) is reported as 0.69 ± 0.14 and the “Number of acts of proceptive behavior” value (Table 4 / Example 8) is reported as 15 ± 4 acts.

With Pro-Arg-Pro-Gly-Pro (PRPGP) the Percentage of lordoses (Table 4 / Example 8) was 0.73 ± 0.14 and the “Number of acts of proceptive behavior” value (Table 4 / Example 8) was 14 ± 6 acts.

In the case of TKPRPF, the Percentage of lordoses (Table 5 / Example 9) is reported as 0.94 ± 0.14 and the “Effect on sexual motivation / reproductive- and sexual-function stimulating activity (in words)” value is reported as “intensification of sexual motivation”.
